Read-outs that look alike come from different tables or passages of the source.
Legend:
[1] = Concentration of ofloxacin in periodontal fluid in the pockets after local administration; assay type: in vivo, volunteers
Procedure: The preparations of Example 3 containing ofloxacin to be inserted into the periodontal pockets were locally administered to the pockets of volunteers and the concentration of ofloxacin in the periodontal fluid in the pockets was determined and compared with that in saliva obtained by oral administration thereof. In the test, the preparations of Example 3 having a thickness of 0.3 mm and width of 1 mm was cut into strips having a length of 4 mm (each containing 0.06 mg of ofloxacin). The strip was inserted into a periodontal pocket of each volunteer. The probing depth of the pocket was 5 mm. After a given time, a filter paper having a width of 1 mm was inserted into the pocket to take the periodontal fluid out of the pocket. The amount of ofloxacin in the periodontal fluid was determined from the diameter of an inhibition circle according to an agar plate diffusion method with E. coli K 12. The quantity of the periodontal fluid thus taken out was determined from a calibration curve prepared from the quantity of a previously prepared liquid sample and the wetted area of the filter paper. The concentration of ofloxacin was thus determined. The time profile of the concentration of ofloxacin in saliva in the oral administration was taken from a report of Morihana et al. (Chemotherapy, 32: Sl, 1070, 1984).

[2] = cited from earlier work; for average concentration of ofloxacin in saliva: oral, 200 mg/body, 8 subjects
monkeys = conditions: cited from earlier work
dogs = conditions: cited from earlier work

Structure (SMILES): CC1COc2c(N3CCN(C)CC3)c(F)cc3c(=O)c(C(=O)O)cn1c23 (stereo not drawn) [ofloxacin, 9-fluoro-2,3-dihydro-3-methyl-10-(4-methyl-1-piperazinyl)-7-oxo-7H-pyrido[1,2,3-de][1,4]benzoxazine-6-carboxylic acid]
- time for which concentration in the pocket was maintained above 70 μg/ml ([1]; 0.06 mg inserted into the periodontal pocket): > 5 h
- concentration at 5 h ([1]; human, periodontal fluid, 0.06 mg inserted into the periodontal pocket, for longer than 5 h, read-out: concentration in the pocket maintained): > 70000 ng/mL
- concentration at 24 h ([1]; human, periodontal fluid, 0.06 mg/pocket, 24 h, 8 pockets of 4 subjects): 16600 ng/mL
- maximum concentration in saliva ([2]; oral administration of 200 mg, in 3 hours): 1.8 µg/mL
- time of maximum concentration in saliva ([2]; oral administration of 200 mg): 3 h
- average concentration of ofloxacin in saliva ([2]; 1 h): 1.18 µg/mL
- average concentration of ofloxacin in saliva ([2]; 2 h): 1.59 µg/mL
- average concentration of ofloxacin in saliva ([2]; 3 h): 1.80 µg/mL
- average concentration of ofloxacin in saliva ([2]; 4 h): 1.65 µg/mL
- average concentration of ofloxacin in saliva ([2]; 5 h): 1.40 µg/mL
- Acute toxicity (LD50 in oral administration) (monkeys): 500 to 1,000 mg/kg
- Acute toxicity (LD50 in oral administration) (dogs): ≥ 200 mg/kg

Source: patent US4965262A, “Method for treating or preventing locally periodontal disease” (Rohto Pharmaceutical Co., Ltd., priority 1987, dated 1990)
